The target of assay [1] is T1, Histone deacetylase 11 (Homo sapiens, UniProt Q96DB2).
T1 sequence (Q96DB2 whole entry): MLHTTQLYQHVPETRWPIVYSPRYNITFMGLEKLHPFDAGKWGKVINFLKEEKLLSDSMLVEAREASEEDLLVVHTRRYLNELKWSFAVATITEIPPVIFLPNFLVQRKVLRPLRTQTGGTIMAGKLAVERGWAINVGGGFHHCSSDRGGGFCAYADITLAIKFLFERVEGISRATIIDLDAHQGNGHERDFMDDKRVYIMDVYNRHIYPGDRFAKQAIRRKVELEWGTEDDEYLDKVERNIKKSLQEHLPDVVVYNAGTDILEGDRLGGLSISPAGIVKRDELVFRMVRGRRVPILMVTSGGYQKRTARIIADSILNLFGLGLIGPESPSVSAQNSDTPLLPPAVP
The experiment in a line: Inhibition of full length human recombinant HDAC11 using FAM-RHKK(tri-fluor-Ac)-NH2 as substrate by electrophoretic mobility shift assay. In general terms: A gel shift assay detects complexes by their altered migration in electrophoresis.

For assay [2], the target named is T2, Histone deacetylase 11 (Homo sapiens) (UniProt Q96DB2).
T2 sequence (whole entry): T1 sequence (Q96DB2 whole entry)
Kind of assay: Inhibition of HDAC11 (unknown origin) expressed in HEK293T cells at 100 uM relative to control. Format: cell-based.

The target in assay [3] is T1, Histone deacetylase 11. Kind of assay: Inhibition of full length N-terminal GST-tagged human HDAC11.
For assay [4], the target named is T1, Histone deacetylase 11. Kind of assay: Inhibition of HDAC11 (unknown origin).
Assay [5] deals with T3, Histone deacetylase 8 (Homo sapiens, UniProt Q9BY41).
T3 sequence (Q9BY41 whole entry): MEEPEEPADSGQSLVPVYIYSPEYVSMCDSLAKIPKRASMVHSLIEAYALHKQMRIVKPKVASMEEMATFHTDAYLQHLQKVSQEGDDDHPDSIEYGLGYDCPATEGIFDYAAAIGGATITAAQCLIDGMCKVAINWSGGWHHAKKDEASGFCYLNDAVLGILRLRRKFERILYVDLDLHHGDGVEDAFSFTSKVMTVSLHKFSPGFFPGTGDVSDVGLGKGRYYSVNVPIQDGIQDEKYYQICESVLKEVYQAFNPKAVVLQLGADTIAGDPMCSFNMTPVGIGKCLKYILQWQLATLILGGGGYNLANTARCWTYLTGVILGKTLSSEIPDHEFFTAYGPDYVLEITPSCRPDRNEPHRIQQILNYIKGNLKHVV
Kind of assay: Inhibition of human Flag-tagged HDAC8 expressed in HEK293T cells by fluorescence based analysis. In kind it is cell-based.

Assay [6] concerns the target T4, Protein deacetylase HDAC6 (Homo sapiens, UniProt Q9UBN7).
T4 sequence (Q9UBN7 whole entry): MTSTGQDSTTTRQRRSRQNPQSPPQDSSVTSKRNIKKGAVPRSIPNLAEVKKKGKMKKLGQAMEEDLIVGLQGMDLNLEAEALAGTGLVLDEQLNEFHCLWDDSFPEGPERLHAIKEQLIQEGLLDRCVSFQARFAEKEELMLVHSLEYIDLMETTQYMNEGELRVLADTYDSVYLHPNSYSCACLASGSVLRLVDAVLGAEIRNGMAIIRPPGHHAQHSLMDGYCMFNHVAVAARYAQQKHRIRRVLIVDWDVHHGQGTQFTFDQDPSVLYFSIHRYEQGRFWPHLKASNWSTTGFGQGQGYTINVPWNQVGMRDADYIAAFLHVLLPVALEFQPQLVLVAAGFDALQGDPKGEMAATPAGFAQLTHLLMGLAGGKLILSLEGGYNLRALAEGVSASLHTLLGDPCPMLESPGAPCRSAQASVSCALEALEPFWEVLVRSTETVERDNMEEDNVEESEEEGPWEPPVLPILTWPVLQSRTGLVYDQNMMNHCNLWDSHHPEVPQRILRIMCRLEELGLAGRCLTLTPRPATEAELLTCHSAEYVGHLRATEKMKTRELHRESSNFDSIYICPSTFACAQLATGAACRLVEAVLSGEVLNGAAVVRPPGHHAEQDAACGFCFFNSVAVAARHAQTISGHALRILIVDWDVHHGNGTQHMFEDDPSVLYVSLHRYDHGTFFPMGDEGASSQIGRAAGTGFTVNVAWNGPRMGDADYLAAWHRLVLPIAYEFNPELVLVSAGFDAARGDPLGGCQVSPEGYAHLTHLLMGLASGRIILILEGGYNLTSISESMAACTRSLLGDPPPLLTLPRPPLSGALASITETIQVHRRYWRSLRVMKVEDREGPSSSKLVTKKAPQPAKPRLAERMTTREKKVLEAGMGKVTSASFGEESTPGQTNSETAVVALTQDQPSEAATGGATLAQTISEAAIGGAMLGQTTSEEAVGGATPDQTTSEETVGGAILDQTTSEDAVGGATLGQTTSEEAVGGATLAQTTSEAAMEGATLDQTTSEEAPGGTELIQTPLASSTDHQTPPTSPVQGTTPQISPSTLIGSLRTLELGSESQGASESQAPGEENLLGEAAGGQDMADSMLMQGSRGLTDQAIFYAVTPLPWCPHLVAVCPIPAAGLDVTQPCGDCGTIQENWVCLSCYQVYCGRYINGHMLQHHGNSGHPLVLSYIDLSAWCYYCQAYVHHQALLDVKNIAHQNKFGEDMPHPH
Kind of assay: Inhibition of human recombinant HDAC6 using AMC-K(Ac)GL as substrate by fluorescence based assay.

Each structure is given as a SMILES string. Square brackets hold non-standard residues; d marks the D form. Peptide text beside a SMILES is read from it. * marks the point of attachment. Asu = N[C@@H](CCCCCC(=O)O)C(=O)O; dPip = O=C(O)[C@H]1CCCCN1; NHOH = ON*

Turning to `CCCCCCCCCCCCCCCC(=O)O` [PALMITIC ACID], the IC50 in assay [1] was determined as 900 µM.

In the case of `O=C(O)CCCC[C@@H]1CCSS1`, the inhibition in assay [2] was less than 20%.

Regarding `CC[C@H](C)[C@@H]1NC(=O)[C@H](Cc2c[nH]c3ccccc23)NC(=O)[C@H](CCCCCC(=O)NO)NC(=O)[C@H]2CCCCN2C1=O` (cyclo([Asu](NHOH)WI[dPip])), half-maximal inhibition in assay [3] (IC50) was put at 10 nM.

In assay [2], `O=C(O)CCCC[C@@H]1SC[C@@H]2NC(=O)N[C@@H]21` returned an inhibition of less than 20%.

Molecule `O=C(O)/C=C/c1ccc(-c2ccc(O)c(C34CC5CC(CC(C5)C3)C4)c2)cc1` [ADAROTENE] showed a 50% inhibitory concentration (IC50) in assay [4] of more than 10 µM.

The molecule `CCCCCCCC(=O)O` gave an inhibition in assay [2] of less than 20%.

For the molecule `CCCCCC(=O)O`, the inhibition in assay [2] was less than 20%.

`CCCCCCCCCCCCCCCCNNC(=O)c1ccc(N(C)C)cc1`: the IC50 in assay [5] is more than 100 µM.

The molecule `CCC(=O)O` came in with an inhibition in assay [2] of less than 10%.

In turn, `CCCC(=O)O` had an inhibition in assay [2] of less than 5%.

`O=C(O)C(F)(F)F` yielded an inhibition in assay [2] of less than 5%.

Turning to `CC(=O)O`, the inhibition in assay [2] is less than 10%.

With `CCCCCCCCCCCCCCCCNNC(=O)c1cccs1`, the IC50 in assay [5] is more than 100 µM.

Turning to `Cn1c(/C=C/C(=O)NO)ccc1/C=C/C(=O)c1cccc(F)c1`, the IC50 in assay [6] stood at 8.4 µM.

One may read the IC50 as the concentration needed to halve the response being measured. For orientation: inhibition means the percentage by which the read-out fell short of the control.

The values above are taken from ChEMBL document CHEMBL6071125, “Biological function and small molecule inhibitors of histone deacetylase 11” (Eur J Med Chem, 2024).
